Laboratory results as given in ChEMBL document CHEMBL4387706, “Discovery of Novel Spiroindoline Derivatives as Selective Tankyrase Inhibitors” (J Med Chem, 2019).
Converted amounts (≈) assume the structure as drawn. The source made the active and inactive calls. The calls are words filed in the database; no cut-off is given here.

Experiments:
[1] = target: Poly [ADP-ribose] polymerase 1 (Homo sapiens, UniProt P09874)
Description: Inhibition of recombinant human PARP1 expressed in Escherichia coli assessed as reduction in auto-PARylation using histone as substrate measured after 45 mins in presence of biotinylated-NAD+ by ELISA

[2] = target: T1, Poly [ADP-ribose] polymerase tankyrase-1 (Homo sapiens, UniProt O95271)
T1 sequence (O95271 whole entry): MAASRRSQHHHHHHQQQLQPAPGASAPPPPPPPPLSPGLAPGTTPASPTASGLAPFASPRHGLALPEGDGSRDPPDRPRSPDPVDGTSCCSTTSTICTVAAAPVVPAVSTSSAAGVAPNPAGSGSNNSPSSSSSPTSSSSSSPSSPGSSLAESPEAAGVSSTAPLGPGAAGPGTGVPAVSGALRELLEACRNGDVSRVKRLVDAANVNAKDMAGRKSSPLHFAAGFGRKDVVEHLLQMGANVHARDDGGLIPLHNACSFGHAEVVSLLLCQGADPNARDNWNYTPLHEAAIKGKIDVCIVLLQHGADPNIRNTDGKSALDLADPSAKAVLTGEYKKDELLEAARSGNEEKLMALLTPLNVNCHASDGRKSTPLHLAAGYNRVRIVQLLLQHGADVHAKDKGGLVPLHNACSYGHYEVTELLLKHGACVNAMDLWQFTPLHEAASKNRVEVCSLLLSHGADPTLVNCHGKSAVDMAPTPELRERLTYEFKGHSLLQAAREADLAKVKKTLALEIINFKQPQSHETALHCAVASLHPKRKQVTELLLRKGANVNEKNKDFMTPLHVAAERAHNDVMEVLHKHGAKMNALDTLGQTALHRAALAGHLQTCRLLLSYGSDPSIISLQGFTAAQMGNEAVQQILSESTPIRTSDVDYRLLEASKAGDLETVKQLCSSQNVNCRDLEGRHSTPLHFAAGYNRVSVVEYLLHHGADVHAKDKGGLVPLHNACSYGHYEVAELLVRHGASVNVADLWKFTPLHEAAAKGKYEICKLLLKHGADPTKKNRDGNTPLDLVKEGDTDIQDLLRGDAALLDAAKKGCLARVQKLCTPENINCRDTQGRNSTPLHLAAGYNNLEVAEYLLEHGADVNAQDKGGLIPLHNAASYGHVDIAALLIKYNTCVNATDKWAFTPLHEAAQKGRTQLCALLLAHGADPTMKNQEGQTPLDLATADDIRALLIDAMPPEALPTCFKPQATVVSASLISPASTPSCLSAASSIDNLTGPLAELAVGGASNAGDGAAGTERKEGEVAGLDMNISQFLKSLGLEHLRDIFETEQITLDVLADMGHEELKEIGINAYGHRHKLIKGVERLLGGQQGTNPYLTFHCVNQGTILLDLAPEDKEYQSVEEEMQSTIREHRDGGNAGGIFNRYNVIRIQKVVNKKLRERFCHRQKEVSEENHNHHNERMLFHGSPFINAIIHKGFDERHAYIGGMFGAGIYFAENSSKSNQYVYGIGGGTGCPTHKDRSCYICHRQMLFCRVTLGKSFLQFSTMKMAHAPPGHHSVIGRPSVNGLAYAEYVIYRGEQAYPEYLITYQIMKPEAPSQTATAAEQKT
Description: Inhibition of recombinant human N-terminal TEV cleavage site-fused/FLAG-poly his-tagged TNKS SAM-PARP domain (1024 to 1327 residues) expressed in Escherichia coli assessed as reduction in auto-PARylation preincubated for 10 mins followed by biotinylated-NAD+ addition and measured after 45 mins by ELISA

RKO [3] = assay: Antiproliferative activity against human RKO cells assessed inhibition of cell growth measured after 5 days by MTT assay; type: functional; settings: 120 h
[4] = target: T2, Poly [ADP-ribose] polymerase tankyrase-2 (Homo sapiens, UniProt Q9H2K2)
T2 sequence (Q9H2K2 whole entry): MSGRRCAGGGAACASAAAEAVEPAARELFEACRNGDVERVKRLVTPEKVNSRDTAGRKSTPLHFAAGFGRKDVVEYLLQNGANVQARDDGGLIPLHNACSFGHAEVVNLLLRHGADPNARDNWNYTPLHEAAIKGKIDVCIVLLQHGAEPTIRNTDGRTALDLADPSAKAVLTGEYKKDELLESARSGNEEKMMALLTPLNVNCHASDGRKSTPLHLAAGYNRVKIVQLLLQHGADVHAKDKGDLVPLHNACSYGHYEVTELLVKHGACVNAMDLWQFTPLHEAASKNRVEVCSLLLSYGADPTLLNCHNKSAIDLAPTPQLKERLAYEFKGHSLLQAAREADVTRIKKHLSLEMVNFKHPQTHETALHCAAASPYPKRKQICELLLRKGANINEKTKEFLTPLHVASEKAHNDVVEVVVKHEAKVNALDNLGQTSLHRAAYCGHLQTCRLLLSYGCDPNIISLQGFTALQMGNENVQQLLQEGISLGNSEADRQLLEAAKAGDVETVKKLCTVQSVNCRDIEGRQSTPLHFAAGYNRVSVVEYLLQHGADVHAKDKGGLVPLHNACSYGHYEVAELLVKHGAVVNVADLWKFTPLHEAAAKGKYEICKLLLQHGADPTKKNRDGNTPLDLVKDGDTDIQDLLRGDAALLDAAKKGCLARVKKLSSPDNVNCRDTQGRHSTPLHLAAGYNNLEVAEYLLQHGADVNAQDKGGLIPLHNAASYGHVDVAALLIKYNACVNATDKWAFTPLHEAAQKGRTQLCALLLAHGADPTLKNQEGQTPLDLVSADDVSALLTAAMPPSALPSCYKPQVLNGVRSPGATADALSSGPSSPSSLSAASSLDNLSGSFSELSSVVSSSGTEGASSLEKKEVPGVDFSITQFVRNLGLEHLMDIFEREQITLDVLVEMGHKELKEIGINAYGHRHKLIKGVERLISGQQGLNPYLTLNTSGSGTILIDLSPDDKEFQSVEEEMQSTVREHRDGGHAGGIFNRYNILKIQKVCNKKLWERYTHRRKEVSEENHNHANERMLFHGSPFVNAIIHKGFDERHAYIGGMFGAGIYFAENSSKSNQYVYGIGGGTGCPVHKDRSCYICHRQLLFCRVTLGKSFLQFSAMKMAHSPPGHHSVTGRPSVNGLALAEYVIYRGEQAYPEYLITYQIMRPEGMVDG
Description: Inhibition of recombinant human N-terminal TEV cleavage site-fused/FLAG-poly his-tagged TNKS2 SAM-PARP domain (613 to 1166 residues) expressed in Escherichia coli assessed as reduction in auto-PARylation preincubated for 10 mins followed by biotinylated-NAD+ addition and measured after 45 mins by ELISA

COLO 320DM [5] = assay: cells; settings: Homo sapiens, 96 h
Description: Antiproliferative activity against human COLO320DM cells assessed as inhibition of cell growth measured after 4 days by CellTiter-Glo assay

Tankyrase 1/2 = target: T3, Tankyrase 1/2 (Homo sapiens, UniProt Q9H2K2+O95271)
T3 sequence (Q9H2K2 whole entry): T2 sequence (Q9H2K2 whole entry)
T3 sequence (O95271 whole entry): T1 sequence (O95271 whole entry)
Description: Inhibition of TNKS/TNKS2 (unknown origin) expressed in human DLD1 cells assessed as reduction in Wnt-signaling measured after 24 hrs by TCF-luciferase reporter gene assay

physchem = settings: phosphate buffer, pH 7.4
[6] = target: Tankyrase 1/2 (Homo sapiens) (UniProt Q9H2K2+O95271); assay: Inhibition of TNKS/TNKS2 in human COLO320DM cells assessed as upregulation of AXIN2 expression at 0.1 uM measured after 16 hrs by Western blot analysis relative to G007-LK; type: cell-based
COLO 320DM [7] = assay: Antiproliferative activity against human COLO320DM cells assessed inhibition of cell growth measured after 5 days by MTT assay; type: functional; settings: 120 h
[8] = Permeability of the compound by PAMPA; type: ADME; settings: read-out: permeability
[9] = Cmax in ICR mouse at 50 mg/kg, ip; type: ADME, organism-based; design: dose 50 mg/kg, route intraperitoneal; settings: in vivo
in vitro [10] = settings: human, liver microsomes
Description: Stability in human liver microsomes assessed as parent compound remaining at 1 uM measured after 30 mins in presence of NADPH by LC-MS/MS analysis

[11] = Protein binding in human serum assessed as unbound fraction at 1 uM measured after 24 hrs by LC-MS/MS analysis; type: ADME, cell-free
[12] = AUC (infinity) in ICR mouse at 50 mg/kg, ip; type: ADME, organism-based; design: dose 50 mg/kg, route intraperitoneal, time infinity; settings: in vivo
[13] = Protein binding in mouse serum assessed as unbound fraction at 1 uM measured after 24 hrs by LC-MS/MS analysis; type: ADME, cell-free
[14] = Half life in ICR mouse at 50 mg/kg, ip; type: ADME, organism-based; settings: in vivo
RKO [15] = assay: Antiproliferative activity against human RKO cells assessed reduction in cell viability at 0.3 uM measured after 5 days by MTT assay; type: functional, cell-based
in vitro [16] = settings: mouse, liver microsomes
Description: Stability in mouse liver microsomes assessed as parent compound remaining at 1 uM measured after 30 mins in presence of NADPH by LC-MS/MS analysis

Sequence of Poly [ADP-ribose] polymerase 1 (P09874 whole entry): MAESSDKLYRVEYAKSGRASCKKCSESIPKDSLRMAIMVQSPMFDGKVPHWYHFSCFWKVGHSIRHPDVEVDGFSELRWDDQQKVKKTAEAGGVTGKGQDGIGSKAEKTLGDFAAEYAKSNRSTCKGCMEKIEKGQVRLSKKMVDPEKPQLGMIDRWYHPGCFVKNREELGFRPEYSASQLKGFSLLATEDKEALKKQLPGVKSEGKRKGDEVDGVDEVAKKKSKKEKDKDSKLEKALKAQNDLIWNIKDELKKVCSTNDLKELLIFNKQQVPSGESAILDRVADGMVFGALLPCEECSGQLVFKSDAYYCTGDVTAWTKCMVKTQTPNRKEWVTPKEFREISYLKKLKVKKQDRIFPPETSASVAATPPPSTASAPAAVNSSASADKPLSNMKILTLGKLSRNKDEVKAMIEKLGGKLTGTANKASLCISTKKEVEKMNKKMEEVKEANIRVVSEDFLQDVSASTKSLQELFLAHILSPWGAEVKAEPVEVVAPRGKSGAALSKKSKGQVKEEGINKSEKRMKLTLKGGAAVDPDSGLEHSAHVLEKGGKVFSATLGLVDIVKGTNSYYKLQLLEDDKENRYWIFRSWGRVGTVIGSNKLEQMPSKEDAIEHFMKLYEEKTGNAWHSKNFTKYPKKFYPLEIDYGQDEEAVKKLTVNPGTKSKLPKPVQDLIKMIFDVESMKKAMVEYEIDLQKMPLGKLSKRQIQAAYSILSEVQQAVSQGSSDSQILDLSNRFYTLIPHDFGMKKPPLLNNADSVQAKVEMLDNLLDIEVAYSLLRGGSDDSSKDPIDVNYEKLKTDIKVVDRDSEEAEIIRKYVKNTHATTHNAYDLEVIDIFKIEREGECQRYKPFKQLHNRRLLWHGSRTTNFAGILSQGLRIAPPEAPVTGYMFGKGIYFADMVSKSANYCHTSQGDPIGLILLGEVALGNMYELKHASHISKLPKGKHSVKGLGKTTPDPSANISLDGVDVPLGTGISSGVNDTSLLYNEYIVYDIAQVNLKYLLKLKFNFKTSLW

SMILES	IC50 [1]	IC50 [2]	GI50 (RKO [3])	IC50 [4]	GI50 (COLO 320DM [5])	IC50 (Tankyrase 1/2)	solubility at 1 h, 200 µM (physchem)	fold change (FC) [6]	GI50 (COLO 320DM [7])	Papp [8]	Cmax [9]	remaining at 0.5 h, 1 µM (in vitro [10])	fraction unbound at 24 h, 1 µM [11]	AUC(0-inf) [12]	fraction unbound at 24 h, 1 µM [13]	half-life [14]	Activity (RKO [15])	remaining at 0.5 h, 1 µM (in vitro [16])	Fu ([11]; 24 h, 1 µM)
O=c1[nH]c(N2CCC3(CC2)CN(CCO)c2cc(Cl)cc(Cl)c23)nc2c1CCCC2	> 20000 nM	18.2 nM	40 nM	16.4 nM	2900 nM	119 nM	5.2 µg/mL (≈ 11.6 µM)	4.03	4650 nM										
O=c1[nH]c(N2CCC3(CC2)CN(CCO)c2cccc(F)c23)nc2c1CCCC2	> 20000 nM	9.2 nM	90 nM	11.8 nM	1400 nM	83.9 nM	74.6 µg/mL (≈ 187 µM)	3.63	260 nM	7.6 ×10⁻⁶ cm/s									
O=C1N(CCO)c2ccccc2C12CCN(c1nc3c(c(=O)[nH]1)CCCC3)CC2	> 20000 nM	19 nM	3400 nM	26 nM	12700 nM	918 nM	78.7 µg/mL (≈ 200 µM)	0.98	2670 nM	2.9 ×10⁻⁶ cm/s									
O=c1[nH]c(N2CCC3(CC2)CN(CCO)c2cccc(Cl)c23)nc2c1CCCC2	> 20000 nM	16.6 nM	> 10000 nM	17 nM	1500 nM	52.9 nM	2.5 µg/mL (≈ 6.03 µM)	4.86	300 nM		75.6 µM	6.1%	0.009	667 µM·h	0.01	4.8 h	Active	1.1%	
Oc1nc(-c2ccc(C(F)(F)F)cc2)nc2c1CSCC2					17000 nM		0.4 µg/mL (≈ 1.28 µM)			3.24 ×10⁻⁶ cm/s		78.4%			0.086			0%	0.6%
O=C1Oc2ccccc2C12CCN(c1nc3c(c(=O)[nH]1)CCCC3)CC2	> 20000 nM	30.2 nM		18.3 nM	> 50000 nM	> 10000 nM	1.17 µg/mL (≈ 3.33 µM)					28.1%						0.1%	
O=C1Nc2ccccc2C12CCN(c1nc3c(c(=O)[nH]1)CCCC3)CC2	> 20000 nM	27.6 nM		25.1 nM	11200 nM	591 nM	64.2 µg/mL (≈ 183 µM)					84.3%						0%	
O=C1N(CCO)c2cccc(F)c2C12CCN(c1nc3c(c(=O)[nH]1)CCCC3)CC2	> 20000 nM	6.8 nM	2030 nM	8.2 nM	1800 nM	36.5 nM	80.1 µg/mL (≈ 194 µM)	4.1	190 nM	3.6 ×10⁻⁶ cm/s									
O=c1[nH]c(N2CCC3(CC2)CN(CCO)c2ccccc23)nc2c1CCCC2	> 20000 nM	49.3 nM	220 nM	26.9 nM	3900 nM	362 nM	> 76.1 µg/mL	0.98	1770 nM	17.4 ×10⁻⁶ cm/s									
O=C1N(CCO)c2cc(Cl)cc(Cl)c2C12CCN(c1nc3c(c(=O)[nH]1)CCCC3)CC2	> 20000 nM	9 nM	2610 nM	9.5 nM	2600 nM	19.8 nM	55.9 µg/mL (≈ 121 µM)	8.03	450 nM	43 ×10⁻⁶ cm/s									
